Test results: PubChem BioAssay AID1259407 (Chemical Carcinogenesis Research Information System (CCRIS), 2018)
Active and inactive are the calls of the source. No rule for the calls is given here.

Test system: CCRIS mutagenicity, Ames/micronucleus/aberration tests
Assay: CCRIS mutagenicity studies
[1] = Test System: AMES SALMONELLA TYPHIMURIUM, Strain/Indicator: TA98, Metabolic Activation: NONE, Method: STANDARD PLATE
[2] = Test System: AMES SALMONELLA TYPHIMURIUM, Strain/Indicator: TA100, Metabolic Activation: NONE, Method: STANDARD PLATE
[3] = Test System: AMES SALMONELLA TYPHIMURIUM, Strain/Indicator: TA98, Metabolic Activation: NONE, Method: PREINCUBATION
[4] = Test System: AMES SALMONELLA TYPHIMURIUM, Strain/Indicator: TA98, Metabolic Activation: RAT, LIVER, S-9, AROCLOR 1254, Method: STANDARD PLATE
[5] = Test System: AMES SALMONELLA TYPHIMURIUM, Strain/Indicator: TA100, Metabolic Activation: NONE, Method: PREINCUBATION
[6] = Test System: AMES SALMONELLA TYPHIMURIUM, Strain/Indicator: TA100, Metabolic Activation: RAT, LIVER, S-9, AROCLOR 1254, Method: STANDARD PLATE
[7] = Test System: AMES SALMONELLA TYPHIMURIUM, Strain/Indicator: TA1535, Metabolic Activation: NONE, Method: STANDARD PLATE

## Clc1ccc(C(c2ccccc2Cl)C(Cl)(Cl)Cl)cc1 (stereo not drawn)
End Point: IN VIVO CHROMOSOMAL ABERRATIONS, Test System: MAMMARY GLAND CELLS USING DUAL PROBE FISH, Species: RAT, Strain/Sex: SPRAGUE-DAWLEY/FEMALE, Route: SUBCUTANEOUS INJECTION
  mutagenic call: active; positive (polyploidy)
End Point: IN VIVO MICRONUCLEUS, Test System: MAMMARY GLAND CELLS, Species: RAT, Strain/Sex: SPRAGUE-DAWLEY/FEMALE, Route: SUBCUTANEOUS INJECTION
  mutagenic call: inactive; negative

## CC(C)C[C@@H]1NC(=O)[C@H](C)N(C)C(=O)CNC(=O)/C(=C/c2ccccc2)N(C)C1=O
[1]
  mutagenic call: inactive; negative
Test System: AMES SALMONELLA TYPHIMURIUM, Strain/Indicator: TA98, Metabolic Activation: RAT LIVER S-9, AROCLOR 1254, Method: STANDARD PLATE
  mutagenic call: inactive; negative
[2]
  mutagenic call: inactive; negative
Test System: AMES SALMONELLA TYPHIMURIUM, Strain/Indicator: TA100, Metabolic Activation: RAT LIVER S-9, AROCLOR 1254, Method: STANDARD PLATE
  mutagenic call: inactive; negative
Test System: Ames Salmonella typhimurium, Strain/Indicator: TA97, Metabolic Activation: None, Method: Standard plate
  mutagenic call: inactive; negative. nitrosation did not increase mutagenicity
Test System: Ames Salmonella typhimurium, Strain/Indicator: TA97, Metabolic Activation: Rat, Liver, S-9, Aroclor 1254 (10%), Method: Standard plate
  mutagenic call: inactive; negative. nitrosation did not increase mutagenicity
Test System: Ames Salmonella typhimurium, Strain/Indicator: TA102, Metabolic Activation: None, Method: Standard plate
  mutagenic call: inactive; negative. nitrosation did not increase mutagenicity
Test System: Ames Salmonella typhimurium, Strain/Indicator: TA102, Metabolic Activation: Rat, Liver, S-9, Aroclor 1254 (10%), Method: Standard plate
  mutagenic call: inactive; negative. nitrosation did not increase mutagenicity
Test System: Ames Salmonella typhimurium, Strain/Indicator: TA104, Metabolic Activation: None, Method: Standard plate
  mutagenic call: inactive; negative. nitrosation did not increase mutagenicity
Test System: Ames Salmonella typhimurium, Strain/Indicator: TA104, Metabolic Activation: Rat, Liver, S-9, Aroclor 1254 (10%), Method: Standard plate
  mutagenic call: inactive; negative. nitrosation did not increase mutagenicity

## O=NN1CSCC1C(=O)O (stereo not drawn)
[3]
  mutagenic call: inactive; negative
[1]
  mutagenic call: inactive; negative
Test System: AMES SALMONELLA TYPHIMURIUM, Strain/Indicator: TA98, Metabolic Activation: RAT, LIVER, S-9, AROCLOR 1254, Method: PREINCUBATION
  mutagenic call: inactive; negative
[4]
  mutagenic call: inactive; negative
[5]
  mutagenic call: inactive; negative
[2]
  mutagenic call: inactive; negative
Test System: AMES SALMONELLA TYPHIMURIUM, Strain/Indicator: TA100, Metabolic Activation: RAT, LIVER, S-9, AROCLOR 1254, Method: PREINCUBATION
  mutagenic call: inactive; negative
[6]
  mutagenic call: inactive; negative

## C/C=C\c1ccc(OC)cc1OC
Test System: AMES SALMONELLA TYPHIMURIUM, Strain/Indicator: TA97, Metabolic Activation: NONE, Method: STANDARD PLATE
  mutagenic call: inactive; negative
Test System: AMES SALMONELLA TYPHIMURIUM, Strain/Indicator: TA97, Metabolic Activation: RAT, LIVER, S-9, AROCLOR 1254, Method: STANDARD PLATE
  mutagenic call: inactive; negative
[1]
  mutagenic call: inactive; negative
[4]
  mutagenic call: inactive; negative
[2]
  mutagenic call: inactive; negative
[6]
  mutagenic call: inactive; negative
[7]
  mutagenic call: inactive; negative
Test System: AMES SALMONELLA TYPHIMURIUM, Strain/Indicator: TA1535, Metabolic Activation: RAT, LIVER, S-9, AROCLOR 1254, Method: STANDARD PLATE
  mutagenic call: inactive; negative
Test System: AMES SALMONELLA TYPHIMURIUM, Strain/Indicator: TA1537, Metabolic Activation: NONE, Method: STANDARD PLATE
  mutagenic call: inactive; negative
Test System: AMES SALMONELLA TYPHIMURIUM, Strain/Indicator: TA1537, Metabolic Activation: RAT, LIVER, S-9, AROCLOR 1254, Method: STANDARD PLATE
  mutagenic call: inactive; negative
Test System: AMES SALMONELLA TYPHIMURIUM, Strain/Indicator: TA1538, Metabolic Activation: NONE, Method: STANDARD PLATE
  mutagenic call: inactive; negative
Test System: AMES SALMONELLA TYPHIMURIUM, Strain/Indicator: TA1538, Metabolic Activation: RAT, LIVER, S-9, AROCLOR 1254, Method: STANDARD PLATE
  mutagenic call: inactive; negative

## N[C@@H](CS)C(=O)OC(=O)NCCCl
[7]
  mutagenic call: active; positive

## O=C(O)c1cc(Cl)ccc1Cl
[3]
  mutagenic call: inactive; negative
Test System: AMES SALMONELLA TYPHIMURIUM, Strain/Indicator: TA98, Metabolic Activation: RAT LIVER S-9, PCB, Method: PREINCUBATION
  mutagenic call: inactive; negative
[5]
  mutagenic call: inactive; negative
Test System: AMES SALMONELLA TYPHIMURIUM, Strain/Indicator: TA100, Metabolic Activation: RAT LIVER S-9, PCB, Method: PREINCUBATION
  mutagenic call: inactive; negative
Test System: AMES SALMONELLA TYPHIMURIUM, Strain/Indicator: TA104, Metabolic Activation: NONE, Method: PREINCUBATION
  mutagenic call: inactive; negative
Test System: AMES SALMONELLA TYPHIMURIUM, Strain/Indicator: TA104, Metabolic Activation: RAT LIVER S-9, PCB, Method: PREINCUBATION
  mutagenic call: inactive; negative
Test System: E.COLI, Strain/Indicator: WP2 UVRA, Metabolic Activation: NONE, Method: PREINCUBATION
  mutagenic call: inactive; negative
Test System: E.COLI, Strain/Indicator: WP2 UVRA, Metabolic Activation: RAT LIVER S-9, PCB, Method: PREINCUBATION
  mutagenic call: inactive; negative

## N[C@H](Cc1ccccc1)C(=O)O
Test System: AMES SALMONELLA TYPHIMURIUM, Strain/Indicator: TA98, Metabolic Activation: HAMSTER, LIVER, S-9, AROCLOR 1254 (10%), Method: PREINCUBATION
  mutagenic call: inactive; negative
[3]
  mutagenic call: inactive; negative
Test System: AMES SALMONELLA TYPHIMURIUM, Strain/Indicator: TA98, Metabolic Activation: RAT, LIVER, S-9, AROCLOR 1254 (10%), Method: PREINCUBATION
  mutagenic call: inactive; negative
Test System: AMES SALMONELLA TYPHIMURIUM, Strain/Indicator: TA100, Metabolic Activation: HAMSTER, LIVER, S-9, AROCLOR 1254 (10%), Method: PREINCUBATION
  mutagenic call: inactive; negative
[5]
  mutagenic call: inactive; negative
Test System: AMES SALMONELLA TYPHIMURIUM, Strain/Indicator: TA100, Metabolic Activation: RAT, LIVER, S-9, AROCLOR 1254 (10%), Method: PREINCUBATION
  mutagenic call: inactive; negative
Test System: AMES SALMONELLA TYPHIMURIUM, Strain/Indicator: TA1535, Metabolic Activation: HAMSTER, LIVER, S-9, AROCLOR 1254 (10%), Method: PREINCUBATION
  mutagenic call: inactive; negative
Test System: AMES SALMONELLA TYPHIMURIUM, Strain/Indicator: TA1535, Metabolic Activation: NONE, Method: PREINCUBATION
  mutagenic call: inactive; negative
Test System: AMES SALMONELLA TYPHIMURIUM, Strain/Indicator: TA1535, Metabolic Activation: RAT, LIVER, S-9, AROCLOR 1254 (10%), Method: PREINCUBATION
  mutagenic call: inactive; negative
Test System: AMES SALMONELLA TYPHIMURIUM, Strain/Indicator: TA1537, Metabolic Activation: HAMSTER, LIVER, S-9, AROCLOR 1254 (10%), Method: PREINCUBATION
  mutagenic call: inactive; negative
Test System: AMES SALMONELLA TYPHIMURIUM, Strain/Indicator: TA1537, Metabolic Activation: NONE, Method: PREINCUBATION
  mutagenic call: inactive; negative
Test System: AMES SALMONELLA TYPHIMURIUM, Strain/Indicator: TA1537, Metabolic Activation: RAT, LIVER, S-9, AROCLOR 1254 (10%), Method: PREINCUBATION
  mutagenic call: inactive; negative

## COC1OC1(C)C (stereo not drawn)
[2]
  mutagenic call: active; positive
[7]
  mutagenic call: active; positive

## COc1cc([N+](=O)[O-])c(O)c(C(C)(C)C)c1
[1]
  mutagenic call: inactive; negative
[4]
  mutagenic call: inactive; negative
[2]
  mutagenic call: inactive; negative
[6]
  mutagenic call: inactive; negative

## Nc1cccc([N+](=O)[O-])c1CO
[3]
  mutagenic call: inactive; negative
Test System: AMES SALMONELLA TYPHIMURIUM, Strain/Indicator: TA98, Metabolic Activation: RAT, LIVER, S-9, PHENOBARBITAL AND 5,6-BENZOFLAVONE, Method: PREINCUBATION
  mutagenic call: inactive; negative
[5]
  mutagenic call: inactive; negative
Test System: AMES SALMONELLA TYPHIMURIUM, Strain/Indicator: TA100, Metabolic Activation: RAT, LIVER, S-9, PHENOBARBITAL AND 5,6-BENZOFLAVONE, Method: PREINCUBATION
  mutagenic call: inactive; negative
